Experimental data from the NIST ThermoML archive (doi:10.1021/je900164a).

Assay: xn = mol fraction of the nth substance listed
Conditions: 101 kPa, Liquid, Vibrating tube method

CNC(=O)NC [1,3-dimethylurea] + O
Conditions	mass density [kg/m3]
274.15 K, x1 = 0.000898	1000.36
274.15 K, x1 = 0.0018	1000.83
274.15 K, x1 = 0.00448	1002.26
274.15 K, x1 = 0.00893	1004.68
274.15 K, x1 = 0.01771	1009.58
274.15 K, x1 = 0.02461	1013.5
274.15 K, x1 = 0.03141	1017.27
274.15 K, x1 = 0.03815	1021.02
274.15 K, x1 = 0.04471	1024.43
274.15 K, x1 = 0.05126	1027.8
274.15 K, x1 = 0.06722	1035.64
274.15 K, x1 = 0.08246	1042.41
275.15 K, x1 = 0.000898	1000.39
275.15 K, x1 = 0.0018	1000.85
275.15 K, x1 = 0.00448	1002.25
275.15 K, x1 = 0.00893	1004.65
275.15 K, x1 = 0.01771	1009.48
275.15 K, x1 = 0.02461	1013.35
275.15 K, x1 = 0.03141	1017.12
275.15 K, x1 = 0.03815	1020.73
275.15 K, x1 = 0.04471	1024.13
275.15 K, x1 = 0.05126	1027.45
275.15 K, x1 = 0.06722	1035.23
275.15 K, x1 = 0.08246	1042.02
276.15 K, x1 = 0.000898	1000.4
276.15 K, x1 = 0.0018	1000.86
276.15 K, x1 = 0.00448	1002.26
276.15 K, x1 = 0.00893	1004.64
276.15 K, x1 = 0.01771	1009.4
276.15 K, x1 = 0.02461	1013.24
276.15 K, x1 = 0.03141	1016.94
276.15 K, x1 = 0.03815	1020.54
276.15 K, x1 = 0.04471	1023.92
276.15 K, x1 = 0.05126	1027.2
276.15 K, x1 = 0.06722	1034.87
276.15 K, x1 = 0.08246	1041.67
277.15 K, x1 = 0.000898	1000.41
277.15 K, x1 = 0.0018	1000.87
277.15 K, x1 = 0.00448	1002.27
277.15 K, x1 = 0.00893	1004.63
277.15 K, x1 = 0.01771	1009.35
277.15 K, x1 = 0.02461	1013.14
277.15 K, x1 = 0.03141	1016.8
277.15 K, x1 = 0.03815	1020.37
277.15 K, x1 = 0.04471	1023.74
277.15 K, x1 = 0.05126	1027.03
277.15 K, x1 = 0.06722	1034.56
277.15 K, x1 = 0.08246	1041.26
278.15 K, x1 = 0.000898	1000.41
278.15 K, x1 = 0.0018	1000.86
278.15 K, x1 = 0.00448	1002.23
278.15 K, x1 = 0.00893	1004.56
278.15 K, x1 = 0.01771	1009.26
278.15 K, x1 = 0.02461	1013.05
278.15 K, x1 = 0.03141	1016.7
278.15 K, x1 = 0.03815	1020.22
278.15 K, x1 = 0.04471	1023.58
278.15 K, x1 = 0.05126	1026.87
278.15 K, x1 = 0.06722	1034.3
278.15 K, x1 = 0.08246	1040.88
278.15 K, x1 = 0.09755	1046.81
279.18 K, x1 = 0.000898	1000.38
279.18 K, x1 = 0.0018	1000.83
279.18 K, x1 = 0.00448	1002.19
279.18 K, x1 = 0.00893	1004.5
279.18 K, x1 = 0.01771	1009.16
279.18 K, x1 = 0.02461	1012.89
279.18 K, x1 = 0.03141	1016.44
279.18 K, x1 = 0.03815	1019.9
279.18 K, x1 = 0.04471	1023.29
279.18 K, x1 = 0.05126	1026.57
279.18 K, x1 = 0.06722	1033.9
279.18 K, x1 = 0.08246	1040.45
279.18 K, x1 = 0.09755	1046.32
280.15 K, x1 = 0.000898	1000.35
280.15 K, x1 = 0.0018	1000.78
280.15 K, x1 = 0.00448	1002.14
280.15 K, x1 = 0.00893	1004.44
280.15 K, x1 = 0.01771	1009.05
280.15 K, x1 = 0.02461	1012.74
280.15 K, x1 = 0.03141	1016.24
280.15 K, x1 = 0.03815	1019.66
280.15 K, x1 = 0.04471	1023.02
280.15 K, x1 = 0.05126	1026.26
280.15 K, x1 = 0.06722	1033.52
280.15 K, x1 = 0.08246	1040.01
280.15 K, x1 = 0.09755	1045.78
281.15 K, x1 = 0.000898	1000.29
281.15 K, x1 = 0.0018	1000.73
281.15 K, x1 = 0.00448	1002.06
281.15 K, x1 = 0.00893	1004.34
281.15 K, x1 = 0.01771	1008.91
281.15 K, x1 = 0.02461	1012.56
281.15 K, x1 = 0.03141	1016
281.15 K, x1 = 0.03815	1019.47
281.15 K, x1 = 0.04471	1022.79
281.15 K, x1 = 0.05126	1025.97
281.15 K, x1 = 0.06722	1033.21
281.15 K, x1 = 0.08246	1039.61
281.15 K, x1 = 0.09755	1045.39
282.15 K, x1 = 0.000898	1000.22
282.15 K, x1 = 0.0018	1000.65
282.15 K, x1 = 0.00448	1001.98
282.15 K, x1 = 0.00893	1004.22
282.15 K, x1 = 0.01771	1008.75
282.15 K, x1 = 0.02461	1012.36
282.15 K, x1 = 0.03141	1015.77
282.15 K, x1 = 0.03815	1019.19
282.15 K, x1 = 0.04471	1022.47
282.15 K, x1 = 0.05126	1025.61
282.15 K, x1 = 0.06722	1032.76
282.15 K, x1 = 0.08246	1039.05
282.15 K, x1 = 0.09755	1044.75
283.15 K, x1 = 0.000898	1000.13
283.15 K, x1 = 0.0018	1000.57
283.15 K, x1 = 0.00448	1001.88
283.15 K, x1 = 0.00893	1004.12
283.15 K, x1 = 0.01771	1008.6
283.15 K, x1 = 0.02461	1012.17
283.15 K, x1 = 0.03141	1015.58
283.15 K, x1 = 0.03815	1019.01
283.15 K, x1 = 0.04471	1022.23
283.15 K, x1 = 0.05126	1025.27
283.15 K, x1 = 0.06722	1032.44
283.15 K, x1 = 0.08246	1038.58
283.15 K, x1 = 0.09755	1044.35
288.15 K, x1 = 0.000898	999.526
288.15 K, x1 = 0.0018	999.93
288.15 K, x1 = 0.00448	1001.23
288.15 K, x1 = 0.00893	1003.35
288.15 K, x1 = 0.01771	1007.67
288.15 K, x1 = 0.02461	1011.04
288.15 K, x1 = 0.03141	1014.35
288.15 K, x1 = 0.03815	1017.55
288.15 K, x1 = 0.04471	1020.59
288.15 K, x1 = 0.05126	1023.54
288.15 K, x1 = 0.06722	1030.34
288.15 K, x1 = 0.08246	1036.44
288.15 K, x1 = 0.09755	1041.6
298.15 K, x1 = 0.000898	997.452
298.15 K, x1 = 0.0018	997.853
298.15 K, x1 = 0.00448	999.058
298.15 K, x1 = 0.00893	1001.08
298.15 K, x1 = 0.01771	1005.1
298.15 K, x1 = 0.02461	1008.24
298.15 K, x1 = 0.03141	1011.28
298.15 K, x1 = 0.03815	1014.24
298.15 K, x1 = 0.04471	1017.04
298.15 K, x1 = 0.05126	1019.75
298.15 K, x1 = 0.06722	1025.98
298.15 K, x1 = 0.08246	1031.41
298.15 K, x1 = 0.09755	1036.31
308.15 K, x1 = 0.000898	994.42
308.15 K, x1 = 0.0018	994.802
308.15 K, x1 = 0.00448	995.947
308.15 K, x1 = 0.00893	997.861
308.15 K, x1 = 0.01771	1001.7
308.15 K, x1 = 0.02461	1004.63
308.15 K, x1 = 0.03141	1007.43
308.15 K, x1 = 0.03815	1010.16
308.15 K, x1 = 0.04471	1012.76
308.15 K, x1 = 0.05126	1015.27
308.15 K, x1 = 0.06722	1021.16
308.15 K, x1 = 0.08246	1026.06
308.15 K, x1 = 0.09755	1030.33
